This note sets out measurements from patent publication US10752624B2, “Kinase inhibitors” (Origenis GmbH, priority 2012, dated 2020).

Usually IC50 stands for the point on the concentration scale where inhibition reaches its midpoint.

In test [1] the target is LRRK2 (Homo sapiens, UniProt Q5S007). The test is described as follows: LRRK2-LRRK2 G2019S-Assay (LanthaScreen Eu Kinase Binding Assay). To be noted: 5 nM LRRK2, 10 nM tracer 236, 2 nM EU-Anti-GST antibody, 1 h at RT; read-out: LRRK2 Activities: IC50. The essentials:
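Compound competition with Alexa Fluor 647 tracer 236 (10 nM) was measured after 1 h at room temperature, using 5 nM LRRK2 (wild type or mutant) bound to 2 nM Eu-anti-GST antibody. IC50 was derived from the acceptor/donor (665/615 nm) ratio using a variable-slope dose-response fit.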
For orientation: Time-resolved FRET reads energy transfer from a long-lived donor to a nearby acceptor.

In test [2] the target is T1, SYK kinase (Homo sapiens, UniProt P43405).
T1 construct: purchased Invitrogen, Carlsbad
In words: SYK Assay (OMNIA Kinase Assay, SOX peptide fluorescence). It counts as biochemical. To be noted: 1 mM ATP, 10 μM Omnia Peptide Substrate Tyr 7, 30° C., readings for 30 minutes; read-out: SYK Activities: IC50. The method, then:
In the assay OMNIA® KINASE ASSAY by Invitrogen Corporation (Carlsbad) the effect of invention of a compound on the phosphorylation is determined by measurement of fluorescence intensity of a chelation-enhanced fluorophore called SOX. Upon phosphorylation of the peptide by the kinase of interest, Mg2+ is chelated to form a bridge between the SOX moiety and the phosphate group that is transferred to the specific tyrosine on the peptide. The fluorescence intensity is directly proportional to the amount of peptide phosphorylation.
To the wells of an 384 well small volume plate (Greiner, Frickenhausen) are added (i) the compound under test in 5% DMSO/distilled water (2 μl), (ii) 16 μl of the master mix containing ATP, DTT, Kinase Reaction Buffer, Omina Peptide Substrate Tyr 7 resulting in a final concentration of 1 mM ATP, 0.2 mM DTT and 10 μM Peptide Substrate.
The Master Mix and the assay plate was incubated to reaction temperature before the measurement (30° C.). The reaction was started with addition of (iii) 2 μl 4 μg/ml SYK kinase (Invitrogen, Carlsbad). During measurement fluorescence intensity readings were collected using a TECAN M1000 at a wavelength of λex 360/λem 485 nm every 30 s for 30 minutes. The reaction velocity was plotted versus the inhibitor concentration to determine the IC50 using XLFit 5.0 (IDBS, Guildford) to fit to a sigmoidal dose response curve.

LRRK2, sequence (Q5S007 970-2527 limits assumed): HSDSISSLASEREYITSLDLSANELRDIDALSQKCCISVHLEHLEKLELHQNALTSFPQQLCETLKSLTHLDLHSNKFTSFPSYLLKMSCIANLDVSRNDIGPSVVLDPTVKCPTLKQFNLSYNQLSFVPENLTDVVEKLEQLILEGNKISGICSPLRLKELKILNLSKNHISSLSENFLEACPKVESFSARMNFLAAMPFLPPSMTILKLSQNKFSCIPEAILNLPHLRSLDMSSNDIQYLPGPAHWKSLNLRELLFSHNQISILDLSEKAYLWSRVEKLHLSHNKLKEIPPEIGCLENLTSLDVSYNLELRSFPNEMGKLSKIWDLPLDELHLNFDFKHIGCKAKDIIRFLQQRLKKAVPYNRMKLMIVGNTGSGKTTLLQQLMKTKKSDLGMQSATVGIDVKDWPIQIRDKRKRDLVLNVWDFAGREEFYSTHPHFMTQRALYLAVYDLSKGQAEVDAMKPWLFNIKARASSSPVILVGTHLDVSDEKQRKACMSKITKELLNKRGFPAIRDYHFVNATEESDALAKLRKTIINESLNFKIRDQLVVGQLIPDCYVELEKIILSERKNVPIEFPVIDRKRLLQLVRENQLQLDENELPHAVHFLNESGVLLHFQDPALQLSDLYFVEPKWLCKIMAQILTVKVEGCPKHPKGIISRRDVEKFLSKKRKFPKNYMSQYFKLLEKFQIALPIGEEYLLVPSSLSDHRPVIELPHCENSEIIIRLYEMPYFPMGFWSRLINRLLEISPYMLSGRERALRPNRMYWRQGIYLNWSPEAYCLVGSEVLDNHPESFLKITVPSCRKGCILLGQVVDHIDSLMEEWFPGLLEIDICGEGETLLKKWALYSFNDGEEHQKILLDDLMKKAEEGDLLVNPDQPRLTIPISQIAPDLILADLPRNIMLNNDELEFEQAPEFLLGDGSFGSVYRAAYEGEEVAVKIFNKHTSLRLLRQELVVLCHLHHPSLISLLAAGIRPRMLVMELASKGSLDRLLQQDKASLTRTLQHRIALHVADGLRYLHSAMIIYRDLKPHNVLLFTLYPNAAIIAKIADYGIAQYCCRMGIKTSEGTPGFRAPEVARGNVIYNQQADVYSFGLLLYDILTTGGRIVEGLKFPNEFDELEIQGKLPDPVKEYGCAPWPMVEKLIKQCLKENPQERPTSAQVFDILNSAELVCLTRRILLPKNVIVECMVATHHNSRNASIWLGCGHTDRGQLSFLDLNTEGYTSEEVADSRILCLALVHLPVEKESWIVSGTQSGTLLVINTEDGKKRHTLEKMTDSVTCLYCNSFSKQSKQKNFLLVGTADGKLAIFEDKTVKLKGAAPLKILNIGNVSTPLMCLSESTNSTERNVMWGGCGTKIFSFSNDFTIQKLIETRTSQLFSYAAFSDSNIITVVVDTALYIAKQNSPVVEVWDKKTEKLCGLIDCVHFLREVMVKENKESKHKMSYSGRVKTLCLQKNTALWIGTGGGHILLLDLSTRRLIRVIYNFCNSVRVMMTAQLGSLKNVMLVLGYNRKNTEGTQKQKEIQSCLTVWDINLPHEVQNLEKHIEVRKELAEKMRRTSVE

Turning to `CS(=O)(=O)c1ccc2nc(Nc3cnn(CCO)c3)c3[nH]ncc3c2c1` [Example 186, 2-(4-((8-(methylsulfonyl)-3H-pyrazolo[3,4-c]quinolin-4-yl)amino)-1H-pyrazol-1-yl)ethan-1-ol], the figures for the half-maximal inhibitory concentration (IC50) in test [1] and in test [2] were less than 10 nM and 10 to 100 nM, respectively. In the case of `COc1ccc2nc(Nc3cnn(C(C)C)c3)c3[nH]ncc3c2c1` [Example 292, N-(1-isopropyl-1H-pyrazol-4-yl)-8-methoxy-3H-pyrazolo[3,4-c]quinolin-4-amine], the IC50 in test [1] and in test [2] was 10 to 100 nM in each case. In the case of `CS(=O)(=O)c1ccc2nc(Nc3ccc(N4CCOCC4)cc3)c3[nH]ncc3c2c1` [Example 55, 8-(methylsulfonyl)-N-(4-morpholinophenyl)-3H-pyrazolo[3,4-c]quinolin-4-amine], the IC50 was 10 to 100 nM in test [1] and less than 10 nM in test [2]. For `COc1cccc2nc(Nc3cnn(C(C)(C)C#N)c3)c3[nH]ncc3c12` [Example 184, 2-(4-((9-methoxy-3H-pyrazolo[3,4-c]quinolin-4-yl)amino)-1H-pyrazol-1-yl)-2-methylpropanenitrile], in that order: less than 10 nM and 10 to 100 nM. Turning to `CS(=O)(=O)c1ccc2nc(Nc3cnn(C4CCOCC4)c3)c3[nH]ncc3c2c1` [Example 143, 8-(methylsulfonyl)-N-(1-(tetrahydro-2H-pyran-4-yl)-1H-pyrazol-4-yl)-3H-pyrazolo[3,4-c]quinolin-4-amine], the values for the IC50 in test [1] and in test [2] were less than 10 nM and 10 to 100 nM, respectively. For `COc1cccc2nc(Nc3cnn(C4CCN(C)CC4)c3)c3[nH]ncc3c12` [Example 118, 9-methoxy-N-(1-(1-methylpiperidin-4-yl)-1H-pyrazol-4-yl)-3H-pyrazolo[3,4-c]quinolin-4-amine], in that order: less than 10 nM and 10 to 100 nM. `COCC(COC)n1cc(Nc2nc3ccc(OC)cc3c3c[nH]nc23)cn1` [Example 313, N-(1-(1,3-dimethoxypropan-2-yl)-1H-pyrazol-4-yl)-8-methoxy-2H-pyrazolo[3,4-c]quinolin-4-amine]: the IC50 is 10 to 100 nM in test [1] and 100 to 1000 nM in test [2]. The corresponding values for `COc1ccc2nc(Nc3cnn(C4CCN(C(C)(C)C)CC4)c3)c3[nH]ncc3c2c1` [Example 300, N-(1-(1-(tert-butyl)piperidin-4-yl)-1H-pyrazol-4-yl)-8-methoxy-3H-pyrazolo[3,4-c]quinolin-4-amine] are 10 to 100 nM and 100 to 1000 nM. The corresponding values for `COc1ccc(Nc2nc3ccc(S(C)(=O)=O)cc3c3c[nH]nc23)cc1NC(C)=O` [Example 332, N-(2-methoxy-5-((8-(methylsulfonyl)-2H-pyrazolo[3,4-c]quinolin-4-yl)amino)phenyl)acetamide] are 10 to 100 nM and 10 to 100 nM. `CS(=O)(=O)c1ccc2nc(Nc3ccc(C(=O)N4CCOCC4)cc3)c3[nH]ncc3c2c1` [Example 64, (4-((8-(methylsulfonyl)-3H-pyrazolo[3,4-c]quinolin-4-yl)amino)phenyl)(morpholino)methanone]: the IC50 in test [1] and in test [2] was 10 to 100 nM throughout. As for `CC(=O)Nc1cc(Nc2nc3ccc(S(C)(=O)=O)cc3c3c[nH]nc23)ccc1N1CCN(C(C)=O)CC1` [Example 352, N-(2-(4-acetylpiperazin-1-yl)-5-((8-(methylsulfonyl)-2H-pyrazolo[3,4-c]quinolin-4-yl)amino)phenyl)acetamide], the IC50 in test [1] and in test [2] was 10 to 100 nM throughout.

Regarding `COCCn1cc(Nc2nc3ccc(OC)cc3c3c[nH]nc23)cn1` [Example 109, 8-methoxy-N-(1-(2-methoxyethyl)-1H-pyrazol-4-yl)-2H-pyrazolo[3,4-c]quinolin-4-amine], the IC50 was 10 to 100 nM in test [1] and 100 to 1000 nM in test [2]. For `CSc1ccc2nc(Nc3ccc4c(c3)NC(=O)CC4)c3[nH]ncc3c2c1` [Example 47, 7-((8-(methylthio)-3H-pyrazolo[3,4-c]quinolin-4-yl)amino)-3,4-dihydroquinolin-2(1H)-one], in that order: less than 10 nM and less than 10 nM.

Regarding `COCCCn1cc(Nc2nc3c(OC)cc(OC)cc3c3cn[nH]c23)cn1` [Example 290, 6,8-dimethoxy-N-(1-(3-methoxypropyl)-1H-pyrazol-4-yl)-3H-pyrazolo[3,4-c]quinolin-4-amine], the IC50 in test [1] lay within 10 to 100 nM; in test [2], 100 to 1000 nM. As for `CS(=O)(=O)c1cccc2nc(Nc3ccc4c(c3)NC(=O)CCC4)c3[nH]ncc3c12` [Example 98, 8-((9-(methylsulfonyl)-3H-pyrazolo[3,4-c]quinolin-4-yl)amino)-4,5-dihydro-1H-benzo[b]azepin-2(3H)-one], the IC50 in test [1] fell in the range of 10 to 100 nM; in test [2] it was 100 to 1000 nM. Regarding `CC(C)(C)N1CCC(n2cc(Nc3nc4ccc(S(C)(=O)=O)cc4c4cn[nH]c34)cn2)CC1` [Example 211, N-(1-(1-(tert-butyl)piperidin-4-yl)-1H-pyrazol-4-yl)-8-(methylsulfonyl)-3H-pyrazolo[3,4-c]quinolin-4-amine], the IC50 in test [1] and in test [2] was less than 10 nM in each case.

For the molecule `COc1ccc2nc(Nc3ccc(N4CCN(CCO)CC4)cc3)c3[nH]ncc3c2c1` [Example 297, 2-(4-(4-((8-methoxy-3H-pyrazolo[3,4-c]quinolin-4-yl)amino)phenyl)piperazin-1-yl)ethan-1-ol], the IC50 in test [1] and in test [2] was 10 to 100 nM each time. Take `COCC(C)(C)n1cc(Nc2nc3ccc(S(C)(=O)=O)cc3c3cn[nH]c23)cn1` [Example 208, N-(1-(1-methoxy-2-methylpropan-2-yl)-1H-pyrazol-4-yl)-8-(methylsulfonyl)-3H-pyrazolo[3,4-c]quinolin-4-amine]: the IC50 is less than 10 nM in test [1] and 10 to 100 nM in test [2]. The corresponding values for `COc1ccc2nc(Nc3cnn(C)c3)c3n[nH]cc3c2c1` [Example 83, 8-methoxy-N-(1-methyl-1H-pyrazol-4-yl)-2H-pyrazolo[3,4-c]quinolin-4-amine] are 10 to 100 nM and 100 to 1000 nM. For `CC(C)n1ncc(Nc2nc3ccc(S(C)(=O)=O)cc3c3cn[nH]c23)c1Cl` [Example 233, N-(5-chloro-1-isopropyl-1H-pyrazol-4-yl)-8-(methylsulfonyl)-3H-pyrazolo[3,4-c]quinolin-4-amine], in that order: less than 10 nM and 100 to 1000 nM.

`COc1cc(OC)c2nc(Nc3cnn(C(C)C)c3)c3[nH]ncc3c2c1` [Example 294, N-(1-isopropyl-1H-pyrazol-4-yl)-6,8-dimethoxy-3H-pyrazolo[3,4-c]quinolin-4-amine]: the IC50 in test [2] lay in the range of 100 to 1000 nM. Same read-out and setting: in the case of `COc1ccc2nc(Nc3cnn(C4CCN(C(C)=O)CC4)c3)c3n[nH]cc3c2c1` [Example 152, 1-(4-(4-((8-methoxy-2H-pyrazolo[3,4-c]quinolin-4-yl)amino)-1H-pyrazol-1-yl)piperidin-1-yl)ethan-1-one] it was 10 to 100 nM; in that of `COc1cccc2nc(Nc3cnn(C4CCN(C(C)=O)CC4)c3)c3[nH]ncc3c12` [Example 117, 1-(4-(4-((9-methoxy-3H-pyrazolo[3,4-c]quinolin-4-yl)amino)-1H-pyrazol-1-yl)piperidin-1-yl)ethan-1-one], 100 to 1000 nM.

For `CS(=O)(=O)c1ccc2nc(Nc3ccc(N4CCOCC4)c(C#N)c3)c3n[nH]cc3c2c1` [Example 354, 5-((8-(methylsulfonyl)-2H-pyrazolo[3,4-c]quinolin-4-yl)amino)-2-morpholinobenzonitrile], the half-inhibitory concentration (IC50) in test [2] is 10 to 100 nM. Still for that read-out and setting: in the case of `COCCn1cc(Nc2nc3ccc(S(C)(=O)=O)cc3c3cn[nH]c23)cn1` [Example 153, N-(1-(2-methoxyethyl)-H-pyrazol-4-yl)-8-(methylsulfonyl)-3H-pyrazolo[3,4-c]quinolin-4-amine] it was 10 to 100 nM; in that of `COc1ccc2nc(Nc3cnn(C4CCN(C)CC4)c3)c3n[nH]cc3c2c1` [Example 151, 8-methoxy-N-(1-(1-methylpiperidin-4-yl)-1H-pyrazol-4-yl)-2H-pyrazolo[3,4-c]quinolin-4-amine], 10 to 100 nM; in that of `COCCn1cc(Nc2nc3ccc(S(C)(=O)=O)cc3c3cn[nH]c23)c(C#N)n1` [Example 248, 1-(2-methoxyethyl)-4-((8-(methylsulfonyl)-3H-pyrazolo[3,4-c]quinolin-4-yl)amino)-1H-pyrazole-3-carbonitrile], 100 to 1000 nM. Still for that read-out and setting: in the case of `COc1cc(OC)c2nc(Nc3cnn(C4CCN(C(C)(C)C)CC4)c3)c3[nH]ncc3c2c1` [Example 295, N-(1-(1-(tert-butyl)piperidin-4-yl)-1H-pyrazol-4-yl)-6,8-dimethoxy-3H-pyrazolo[3,4-c]quinolin-4-amine] it was 10 to 100 nM; in that of `COCCn1cc(Nc2nc3cccc(OC)c3c3c[nH]nc23)cn1` [Example 116, 9-methoxy-N-(1-(2-methoxyethyl)-1H-pyrazol-4-yl)-2H-pyrazolo[3,4-c]quinolin-4-amine], 100 to 1000 nM.
